Source: patent US9771559B2, “Methods and compositions for stem cell self-renewal” (Stowers Institute for Medical Research, priority 2007, dated 2017)
Where two headings read alike, the source gives them in different places.

Experiments:
LSK Flk2^− cells = experiment: Ex vivo culture and expansion of sorted LSK Flk2- cells in media with PTEN and/or GSK-3β inhibitors; assay type: cell-based, wild-type (C57Bl/6) mice; conditions: 1 μM CHIR99021, 200 nM BpV(pic); for expansion of LSK cells compared to control: 100 LSK Flk2- cells seeded, 17 and 23 days culture; for Fold expansion of LSK Flk2- cells after 28 days culture: compared to media without inhibitor
Experimental: LSK or LSK Flk2^− cells were sorted into 96-well U-bottom tissue culture plates at 100 cells/well with 200 μl media/well. Cells were incubated at 37° C., 5% O2, 5% CO2 (balance N2) for the indicated number of days. One-half total volume of media (see Table 1, below for the base media) was carefully pipetted from the top and replaced with fresh media every other day.
One hundred LSK Flk2^− cells were sorted from wild-type (C57Bl/6) mice and cultured in (1) media, (2) media+1 μM CHIR99021 (a GSK-3(3β inhibitor, a gift from Dr. Sheng Ding), (3) media+200 nM Dipotassium Bis-peroxo(picolinato)oxovanadate (BpV(pic), a PTEN inhibitor, available from Calbiochem, Cat. No. 203705), (4) media+1 μM CHIR99021+200 nM BpV(pic), (5) media+200 nM Shikonin (also a PTEN inhibitor, available from Calbiochem, Cat. No. 565850), and (6) media+200 nM Shikonin+1 μM CHIR99021. (FIGS. 3B-C). Cells were cultured as described above. Cells were examined at 17 days of culture (FIG. 3B, original magnification 100×) and 23 days (FIG. 3C, original magnification 40×).
LSK Flk2^− cells at 28 days culture in the indicated media conditions were examined (FIG. 3D, original magnification 200×).
Fold expansion of LSK Flk2^− cells after 28 days culture in (1) media, (2) media+BpV(pic), (3) media+CHIR99021, and (4) media+CHIR99021+BpV(pic) were analyzed.
One hundred LSK Flk2^− cells are sorted from wild-type (C57Bl/6) mice and are cultured in (1) media, (2) media+an GSK-3β antibody, (3) media+an anti-PTEN antibody, and (4) media+anti-GSK-3β and anti-PTEN antibodies. Cells are cultured as described above. Cells are examined at 9 days, 17 days and 23 days of culture.
One hundred LSK Flk2^− cells are sorted from wild-type (C57Bl/6) mice and are cultured in (1) media, (2) media+GSK-3β siRNA, (3) media+PTEN siRNA, and (4) media+GSK-3β siRNA and PTEN siRNA. Cells are cultured as described above. Cells are examined at 9 days, 17 days and 23 days of culture.

[1] = tested on: lethally irradiated (10Gy) CD45.1^+ recipient mice; experiment: Transplantation of cultured LSK Flk2- cells into lethally irradiated recipients; donor repopulation in peripheral blood; assay type: in vivo; conditions: 28-day cultures; 1000 re-sorted LSK Flk2- cells (CD45.2+) + 2×10^5 competitor cells per mouse; peripheral blood at 4 weeks post-transplant
Source text: Cells were harvested from the wells prior to transplantation by pipetting up and down several times before transferring to a fresh tube. Residual was then collected by adding more media and repeating. Cells were washed in DMEM (Invitrogen, Cat. No. 31053) without phenol red and added to the appropriate number of whole bone marrow rescue cells from a congenic donor (for 200,000 rescue cells+1,000 re-sorted LSK Flk2^− cells (FIG. 3F-H) or the non-adherent product of 10 days culture of 100 LSK Flk2^− cultured cells (FIG. 3I-K) per mouse as indicated). Cells were injected into lethally irradiated (10 Grays, single dose) Ptprc (CD45.1^+) recipient mice through the tail vein using an insulin syringe.
Repopulation was measured at 4 weeks post-transplant by collection of peripheral blood, red blood cell lysis, and staining of CD45.1 (recipient) compared to CD45.2 (donor) engraftment using antibodies purchased from eBiosciences (FITC conjugated CD45.2 (Cat. No. 11-0454-85) and PE-Cy5 conjugated CD45.1 (Cat. No. 15-0453-82)). Mice transplanted with rescue/competitor cells only were used as a control to determine the limits of repopulation detection. Multi-lineage reconstitution was determined by CD3, B220 (for lymphoid) and Gr1, Mac-1 (for myeloid), as described above.
Cells cultured for 28 days in (1) media, (2) media+BpV(pic), (3) media+CHIR99021 and (4) media+CHIR99021 (1 μM)+BpV(pic) (200 nM) were re-sorted for LSK Flk2^− cells. One thousand LSK Flk2^− cells (CD45.2^+) from each media condition were transplanted into lethally irradiated (10Gy) CD45.1^+ recipient mice along with 2×10^5 congenic whole bone marrow competitor cells. At 4 weeks post-transplant, peripheral blood was analyzed for donor (FIG. 3G) and multi-lineage (FIG. 3H) engraftment. […] The horizontal-dashed line represents the average ‘engraftment’ of mice transplanted with competitor cells only and, thus, the limit of detectability for true engraftment.

[2] = tested on: lethally irradiated (10Gy) CD45.1^+ recipient mice; experiment: Observation of transplant recipients for leukogenesis and health; conditions: recipients of LSK Flk2- cells cultured with inhibitor(s); up to 16 weeks post-transplantation
[3] = tested on: lethally irradiated (10Gy) CD45.1^+ recipient mice; conditions: mouse, in vivo

Compound	expansion of LSK cells compared to control (LSK Flk2^− cells)	Fold expansion of LSK Flk2- cells after 28 days culture (LSK Flk2^− cells)	mice showing >1% engraftment [1]	mice showing any sign of leukogenesis [2]	mice showing any sign of leukogenesis [3]
Cc1c[nH]c(-c2cnc(NCCNc3ccc(C#N)cn3)nc2-c2ccc(Cl)cc2Cl)n1 [CHIR99021]	greater expansion	significant expansion	4/8	no mice	
Dipotassium Bis-peroxo(picolinato)oxovanadate [BpV(pic)]	greater expansion	significant expansion	0/10		no mice
